ChEMBL document CHEMBL4229455, “Synthesis and anticancer activity of novel bisindolylhydroxymaleimide derivatives with potent GSK-3 kinase inhibition” (Bioorg Med Chem, 2018)

What was measured:
Format in all cases: functional
SW-620 [1] = assay: Cytotoxicity against human SW620 cells assessed as cell growth at 0.01 uM after 48 hrs by SRB assay relative to control; conditions: SW-620, 48 h, read-out: Activity
SNB-75 [2] = assay: Cytotoxicity against human SNB75 cells assessed as cell growth at 0.01 uM after 48 hrs by SRB assay relative to control; conditions: SNB-75, 48 h, read-out: Activity
LOX IMVI [3] = assay: Cytotoxicity against human LOXIMVI cells assessed as cell growth at 0.01 uM after 48 hrs by SRB assay relative to control; conditions: read-out: Activity
SK-MEL-2 [4] = assay: Cytotoxicity against human SK-MEL-2 cells assessed as cell growth at 0.01 uM after 48 hrs by SRB assay relative to control; conditions: SK-MEL-2, 48 h, read-out: Activity
786-0 [5] = assay: Cytotoxicity against human 786-O cells assessed as cell growth at 0.01 uM after 48 hrs by SRB assay relative to control; conditions: 786-0, 48 h, read-out: Activity
NCI-H23 [6] = assay: Cytotoxicity against human NCI-H23 cells assessed as cell growth at 0.1 uM after 48 hrs by SRB assay relative to control; conditions: NCI-H23, 48 h, read-out: Activity
LOX IMVI [7] = assay: Cytotoxicity against human LOXIMVI cells assessed as cell growth at 0.1 uM after 48 hrs by SRB assay relative to control; conditions: read-out: Activity
SK-MEL-2 [8] = assay: Cytotoxicity against human SK-MEL-2 cells assessed as cell growth at 0.1 uM after 48 hrs by SRB assay relative to control; conditions: SK-MEL-2, 48 h, read-out: Activity
SK-MEL-28 = assay: Cytotoxicity against human SK-MEL-28 cells assessed as cell growth at 0.1 uM after 48 hrs by SRB assay relative to control; conditions: SK-MEL-28, 48 h, read-out: Activity
RXF 393 [9] = assay: Cytotoxicity against human RXF393 cells assessed as cell growth at 0.1 uM after 48 hrs by SRB assay relative to control; conditions: RXF 393, 48 h, read-out: Activity
SN12C = assay: Cytotoxicity against human SN12C cells assessed as cell growth at 0.1 uM after 48 hrs by SRB assay relative to control; conditions: read-out: Activity
PC-3 = assay: Cytotoxicity against human PC3 cells assessed as cell growth at 0.1 uM after 48 hrs by SRB assay relative to control; conditions: PC-3, 48 h, read-out: Activity
T47D = assay: Cytotoxicity against human T47D cells assessed as cell growth at 0.1 uM after 48 hrs by SRB assay relative to control; conditions: read-out: Activity
K562 = assay: Cytotoxicity against human K562 cells assessed as cell growth at 1 uM after 48 hrs by SRB assay relative to control; conditions: K562, 48 h, read-out: Activity
NCI-H23 [10] = assay: Cytotoxicity against human NCI-H23 cells assessed as cell growth at 1 uM after 48 hrs by SRB assay relative to control; conditions: NCI-H23, 48 h, read-out: Activity
NCI-H460 = assay: Cytotoxicity against human NCI-H460 cells assessed as cell growth at 1 uM after 48 hrs by SRB assay relative to control; conditions: NCI-H460, 48 h, read-out: Activity
M14 = assay: Cytotoxicity against human M14 cells assessed as cell growth at 1 uM after 48 hrs by SRB assay relative to control; conditions: M14, 48 h, read-out: Activity
SK-MEL-2 [11] = assay: Cytotoxicity against human SK-MEL-2 cells assessed as cell growth at 1 uM after 48 hrs by SRB assay relative to control; conditions: SK-MEL-2, 48 h, read-out: Activity
UACC-257 = assay: Cytotoxicity against human UACC257 cells assessed as cell growth at 1 uM after 48 hrs by SRB assay relative to control; conditions: UACC-257, 48 h, read-out: Activity
OVCAR-8 [12] = assay: Cytotoxicity against human OVCAR8 cells assessed as cell growth at 1 uM after 48 hrs by SRB assay relative to control; conditions: OVCAR-8, 48 h, read-out: Activity
786-0 [13] = assay: Cytotoxicity against human 786-O cells assessed as cell growth at 1 uM after 48 hrs by SRB assay relative to control; conditions: 786-0, 48 h, read-out: Activity
HOP-92 = assay: Cytotoxicity against human HOP92 cells assessed as cell growth at 100 uM after 48 hrs by SRB assay relative to control; conditions: HOP-92, 48 h, read-out: Activity
SW-620 [14] = assay: Cytotoxicity against human SW620 cells assessed as cell growth at 100 uM after 48 hrs by SRB assay relative to control; conditions: SW-620, 48 h, read-out: Activity
MDA-MB-435 = assay: Cytotoxicity against human MDA-MB-435 cells assessed as cell growth at 100 uM after 48 hrs by SRB assay relative to control; conditions: MDA-MB-435, 48 h, read-out: Activity
SK-MEL-2 [15] = assay: Cytotoxicity against human SK-MEL-2 cells assessed as cell growth at 100 uM after 48 hrs by SRB assay relative to control; conditions: SK-MEL-2, 48 h, read-out: Activity
IGROV-1 [16] = assay: Cytotoxicity against human IGROV1 cells assessed as cell growth at 100 uM after 48 hrs by SRB assay relative to control; conditions: IGROV-1, 48 h, read-out: Activity
OVCAR-8 [17] = assay: Cytotoxicity against human OVCAR8 cells assessed as cell growth at 100 uM after 48 hrs by SRB assay relative to control; conditions: OVCAR-8, 48 h, read-out: Activity
UO-31 [18] = assay: Cytotoxicity against human UO31 cells assessed as cell growth at 100 uM after 48 hrs by SRB assay relative to control; conditions: UO-31, 48 h, read-out: Activity
Hs-578T = assay: Cytotoxicity against human Hs 578T cells assessed as cell growth at 100 uM after 48 hrs by SRB assay relative to control; conditions: read-out: Activity
MOLT-4 = assay: Cytotoxicity against human MOLT4 cells after 48 hrs by SRB assay; conditions: MOLT-4, 48 h; for CC50: read-out: LC50 (the source's name)
A549 = assay: Cytotoxicity against human A549 cells after 48 hrs by SRB assay; conditions: A549, 48 h; for CC50: read-out: LC50 (the source's name)
NCI-H522 = assay: Cytotoxicity against human NCI-H522 cells after 48 hrs by SRB assay; conditions: NCI-H522, 48 h
SNB-75 [19] = assay: Cytotoxicity against human SNB75 cells after 48 hrs by SRB assay; conditions: SNB-75, 48 h; for CC50: read-out: LC50 (the source's name)
Malme-3M = assay: Cytotoxicity against human MALME-3M cells after 48 hrs by SRB assay
IGROV-1 [20] = assay: Cytotoxicity against human IGROV1 cells after 48 hrs by SRB assay; conditions: IGROV-1, 48 h
RXF 393 [21] = assay: Cytotoxicity against human RXF393 cells after 48 hrs by SRB assay; conditions: RXF 393, 48 h
UO-31 [22] = assay: Cytotoxicity against human UO31 cells after 48 hrs by SRB assay; conditions: UO-31, 48 h

N#CCCCCCn1cc(C2=C(c3cn(CCCCCC#N)c4ccccc34)C(=O)N(O)C2=O)c2ccccc21
growth at 0.01 µM (SW-620 [1]): 100%
growth at 0.01 µM (SNB-75 [2]): 79%
growth at 0.01 µM (LOX IMVI [3]): 94%
growth at 0.01 µM (SK-MEL-2 [4]): 100%
growth at 0.01 µM (786-0 [5]): 103%
growth at 0.1 µM (NCI-H23 [6]): 90%
growth at 0.1 µM (LOX IMVI [7]): 90%
growth at 0.1 µM (SK-MEL-2 [8]): 98%
growth at 0.1 µM (SK-MEL-28): 102%
growth at 0.1 µM (RXF 393 [9]): 102%
growth at 0.1 µM (SN12C): 94%
growth at 0.1 µM (PC-3): 88%
growth at 0.1 µM (T47D): 89%
growth at 1 µM (K562): 94%
growth at 1 µM (NCI-H23 [10]): 94%
growth at 1 µM (NCI-H460): 101%
growth at 1 µM (M14): 89%
growth at 1 µM (SK-MEL-2 [11]): 97%
growth at 1 µM (UACC-257): 97%
growth at 1 µM (OVCAR-8 [12]): 95%
growth at 1 µM (786-0 [13]): 100%
growth at 100 µM (HOP-92): 11%
growth at 100 µM (SW-620 [14]): 7%
growth at 100 µM (MDA-MB-435): -27%
growth at 100 µM (SK-MEL-2 [15]): -38%
growth at 100 µM (IGROV-1 [16]): -5%
growth at 100 µM (OVCAR-8 [17]): 3%
growth at 100 µM (UO-31 [18]): -1%
growth at 100 µM (Hs-578T): 5%
GI50 (MOLT-4): 2.93 µM
TGI (MOLT-4): > 100 µM
CC50 (MOLT-4): > 100 µM
GI50 (A549): 10.4 µM
TGI (A549): > 100 µM
CC50 (A549): > 100 µM
GI50 (NCI-H522): 2.59 µM
LC50 (NCI-H522): > 100 µM
TGI (NCI-H522): 10.5 µM
GI50 (SNB-75 [19]): 2.84 µM
TGI (SNB-75 [19]): 20 µM
CC50 (SNB-75 [19]): > 100 µM
GI50 (Malme-3M): 12 µM
LC50 (concentration killing 50% of cells) (Malme-3M): > 100 µM
TGI (Malme-3M): 62.8 µM
GI50 (IGROV-1 [20]): 5.08 µM
LC50 (concentration killing 50% of cells) (IGROV-1 [20]): > 100 µM
TGI (IGROV-1 [20]): 70.8 µM
GI50 (RXF 393 [21]): 3.15 µM
LC50 (RXF 393 [21]): > 100 µM
TGI (RXF 393 [21]): 12.2 µM
GI50 (UO-31 [22]): 1.76 µM
LC50 (UO-31 [22]): > 100 µM
TGI (UO-31 [22]): 90.1 µM

Cn1cc(C2=C(c3cn(C)c4ncccc34)C(=O)NC2=O)c2ccccc21
growth at 0.01 µM (SW-620 [1]): 96%
growth at 0.01 µM (SNB-75 [2]): 83%
growth at 0.01 µM (LOX IMVI [3]): 101%
growth at 0.01 µM (SK-MEL-2 [4]): 109%
growth at 0.01 µM (786-0 [5]): 99%
growth at 0.1 µM (NCI-H23 [6]): 95%
growth at 0.1 µM (LOX IMVI [7]): 92%
growth at 0.1 µM (SK-MEL-2 [8]): 113%
growth at 0.1 µM (SK-MEL-28): 95%
growth at 0.1 µM (RXF 393 [9]): 98%
growth at 0.1 µM (SN12C): 87%
growth at 0.1 µM (PC-3): 94%
growth at 0.1 µM (T47D): 100%
growth at 1 µM (K562): 76%
growth at 1 µM (NCI-H23 [10]): 84%
growth at 1 µM (NCI-H460): 89%
growth at 1 µM (M14): 110%
growth at 1 µM (SK-MEL-2 [11]): 111%
growth at 1 µM (UACC-257): 112%
growth at 1 µM (OVCAR-8 [12]): 95%
growth at 1 µM (786-0 [13]): 98%
growth at 100 µM (HOP-92): -21%
growth at 100 µM (SW-620 [14]): -19%
growth at 100 µM (MDA-MB-435): -35%
growth at 100 µM (SK-MEL-2 [15]): -55%
growth at 100 µM (IGROV-1 [16]): -10%
growth at 100 µM (OVCAR-8 [17]): -15%
growth at 100 µM (UO-31 [18]): -17%
growth at 100 µM (Hs-578T): -37%
GI50 (MOLT-4): 3.53 µM
TGI (MOLT-4): 17.7 µM
CC50 (MOLT-4): > 100 µM
GI50 (A549): 3.49 µM
TGI (A549): 33.2 µM
CC50 (A549): > 100 µM
GI50 (NCI-H522): 5.05 µM
TGI (NCI-H522): 32.4 µM
GI50 (SNB-75 [19]): 0.291 µM
TGI (SNB-75 [19]): 7.97 µM
CC50 (SNB-75 [19]): 94.6 µM
GI50 (Malme-3M): 5.47 µM
TGI (Malme-3M): 52.4 µM
GI50 (IGROV-1 [20]): 4.1 µM
TGI (IGROV-1 [20]): 27.5 µM
GI50 (RXF 393 [21]): 1.95 µM
TGI (RXF 393 [21]): 5.32 µM
GI50 (UO-31 [22]): 2.46 µM
TGI (UO-31 [22]): 25.3 µM
